Measured values reported in US10029984B2, “Mono- or di-substituted indole derivatives as dengue viral replication inhibitors” (Janssen Pharmaceuticals, Inc., priority 2015, dated 2018).

Assays:
[1] = system: DENV-3 strain H87; test: Tetravalent RT-qPCR assay Protocol A, serotype 3; assay type: cell-based; details: Dengue virus, DENV3, 72 h; RT-qPCR serotype 3 H87, Vero cells, day 3
[2] = system: DENV-4 strains H241; test: Tetravalent RT-qPCR assay Protocol A, serotype 4; assay type: cell-based; details: Dengue virus, DENV4, 72 h; RT-qPCR serotype 4 H241, Vero cells, day 3
[3] = system: DENV-2 16681 strain; test: DENV-2 antiviral assay (eGFP-labeled virus in Vero cells); assay type: cell-based, Dengue virus; details: DENV-2 16681 eGFP, MOI 0.5, 3 days, listed as 10B*
Outline: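 Vero cells were pre-plated with compound overnight, then infected with eGFP-labeled DENV-2 16681 at MOI 0.5 and incubated 3 days at 37 °C. eGFP fluorescence read by automated microscopy; 9-point 4-fold dilutions (25 μM–0.00038 μM final) in quadruplicate, EC50 by linear interpolation versus virus and cell controls.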

`COc1cc(NC(C(=O)c2c[nH]c3cc(OC)c(C)cc23)c2ccc(F)cc2OC)cc(S(C)(=O)=O)c1` (single isomer, unassigned) [Enantiomer 10B, 2-(4-fluoro-2-methoxyphenyl)-2-((3-methoxy-5-(methylsulfonyl)phenyl)amino)-1-(6-methoxy-5-methyl-1H-indol-3-yl)ethanone] showed an EC50 [1] of 55.4 nM, an EC50 [2] of 109 nM and an EC50 [3] of 0.67 nM.
